Experimental data: patent US5066580A, “Xanthene dyes that emit to the red of fluorescein” (priority 1990, dated 1991)
Like-named read-outs stand apart in the source and are kept apart here.

What was measured:
[1] = Fluorescence emission maximum and quantum yield; type: physicochemical; details: for red shift of emission maxima vs carboxy analogs: compared to carboxy analogs 1, 4 and 7; for effect of sulfo group on extinction coefficient and quantum yield: compared to carboxy analogs 1 and 7
Procedure: Second, quantum yields of compounds 1-9 and 14 were measured. Solutions (1×10^-6 M) of compounds 1-9 were prepared in carbonate/ bicarbonate buffer (pH 9.5). Fluorescence emission spectra were measured on a Perkin-Elmer MPF-2A fluorescence spectrophotometer in 3-mL disposable plastic cuvettes. The excitation wavelength was set 30 nm to the red of the maximum excitation wavelength and the emission spectra measured. The area under the emission spectrum was measured (F). The quantum yield (.PHI.) was determined using the following equation, F-kIo .PHI.εcb, where F is the fluorescence, k is a fluorimeter constant, Io is the light intensity at the exciting wavelength, ε is the extinction coefficient at the exciting wavelength, c is the concentration of the dye, and b is the pathlength of the cuvette. The value of k was determined for three different emission wavelength regions by using literature values of .PHI. and measuring the fluorescence of fluorescein (470-670 nm, .PHI.=0.92), eosin (500-700 nm, .PHI.=0.19) and allophycocyanin (Applied BioSystems, 600-800 nm, .PHI.=0.68). The value of Io was determined from a table that was generated by scanning the range of exciting wavelengths on the fluorescence spectrophotometer with the emission monochrometer open; a piece of white paper was placed in the sample holder to reflect the exciting light. The concentration of the dyes were 0.6-1.0 uM; this value in each case was below the concentration ([…]) required in order for the equation to be valid.
(§1) Finally, the spectral characteristics of compounds 1-9 was determined. The extinction coefficients and quantum yields or compounds 1-9 were determined at pH 9.5. The extinction coefficient and quantum yield of monoprotonated Vita Blue was also determined at pH 5.2. The extinction coefficient and the quantum yield of VBDB were determined at pH 7.2.

[2] = Absorbance maximum and extinction coefficient; type: physicochemical; details: for red shift of absorbance maxima vs carboxy analogs: compared to carboxy analogs 1, 4 and 7
Procedure: First, the extinction coefficient of compounds 1-9 and 14 was determined. Stock solutions (5×10^-3 M) of each dye were made by dissolving the dye in two equivalents of 0.1 N NaOH and making up the volume with carbonate/bicarbonate buffer (0.16, 0.34 M, pH 9.5). The solution was diluted ([…]) in additional buffer (final pH 9.5-10) and the absorbance spectrum measured. A stock solution (1.2×10^-3 M) of Vita Blue was prepared in DMSO, diluted into citrate buffer (0.1 M, pH 5 2) to give a final concentration of 1.6×10^-5 M and the absorbance spectrum measured. A stock solution (8.2×10^-3 M) of VBDB was prepared in DMSO and diluted into pyrophosphate buffer (0.1 M, pH 7.2) to give a final concentration of 8.1×10^-5 M and the absorbance spectrum measured on a Beckman model DU-6UV visible spectrophotometer.
as §1

[3] = 470-670 nm (fluorescein), 500-700 nm (eosin), 600-800 nm (allophycocyanin); cited from earlier work
[4] = cited from earlier work
[5] = Absorbance titration of Vita Blue; type: physicochemical
Procedure: Absorbance titration of Vita Blue then was measured. To a plastic cuvette (3 mL) was added the following solutions: citrate buffer (0.1 mL, 0.1 M, pH 4.2), pyrophosphate buffer (0.1 mL, 0.1 M, pH 6.2), EPPS buffer (0.1 mL, 0.1 M, pH 8.4), water (2.6 mL), HCl solution (5 uL, 6 N) and Vita Blue solution (8 or 40 uL, […]). The final concentration of Vita Blue was 3.4×10^-6 or 1.7×10^-5 M. The initial pH was approximately 3. Aliquots of NaOH solution were added (1-3 uL, 4 N) and the pH and the absorbance spectrum from 700 to 400 nm measured.

[6] = Fluorescence emission spectra of Vita Blue at varying pH; type: physicochemical
Procedure: Fluorescence emission spectra of Vita Blue also was determined. To each of five plastic cuvettes (3 mL) were added one of the following buffered solutions (0.1 M): citrate buffer (pH 4.21), pyrophosphate buffer at three pH values (6.22, 7.21, 9.05), and EPPS buffer (pH 8.37). Vita Blue solution (5 uL, 1.25×10^-3 M) was added, and the fluorescence emission spectra from 450 to 650 nm was measured. The excitation wavelength was 540 nm.

human white blood cells = experiment: Staining of lysed whole blood, fluorescence by flow cytometry; type: cell-based; details: 1 uM dye
Procedure: After characterizing the various xanthene dyes prepared in accordance with this invention, one of the dyes (VBDB) was used to stain cells. The ability of VBDB to stain cells was compared with BCECF-AM, a membrane permeable esterase substrate (Molecular Probes) and fluorescein diacetate (FDA). […] After incubation, the tube was centrifuged. This procedure specifically lyses red blood cells leaving the white cells intact and viable. The supernatant was removed and the white blood cells which remained were washed twice and resuspended in blood cell diluent (1 mL, Diagnostic Technology, Inc.). The cell concentration and the percentage of dead cells were ascertained by counting the cells manually using a fluorescent microscope and a hemacytometer; acridine orange and ethidium bromide were used to stain live and dead cells respectively.
Four samples of approximately 1.7×10^6 cells then were placed in polystyrene tubes. To each tube was added one of the following solutions (1 mL): FDA (1 uM) BCECF-AM (1 uM), VBDB (0.8 uM), or VBDB (8.0 uM). The dye solutions were prepared by diluting a stock solution of each dye (1-8 mM in DMSO) into blood cell diluent. The tubes were kept at room temperature for 30 minutes. The samples were washed three times and resuspended in blood cell diluent (1 mL).
A bandpass 530/30 emission filter was used for both FDA and BCECF-AM, while a bandpass 660/20 emission filter was used for VBDB. Data from 10,000 events were acquired from each of these samples immediately after staining, one hour after staining, and two hours after staining.
Referring to FIG. 2, VBDB, BCECF-AM and FDA were compared as vital dyes by staining lysed whole blood and examining the fluorescence by flow cytometry. […] Four samples of cells were incubated with BCECF AM (1 uM), FDA (1 uM) and VBDB (0.8 uM, 8.0 uM). The cells were analyzed immediately after staining (t=0), after one hour (t=1) and after two hours (t=2).
The data in FIG. 2 also was used to quantitate the "live" cells and the "dead" cells. […] It was assumed the live cells were those cells which retained the dye (the right peak) and that dead cells were those cells whose membranes had become leaky (the left peak). By setting the gate to the immediate left of the main peak, the "dead" cells to the left of the gate were counted.

[7] = pH 5.2 (monoprotonated Vita Blue)

EM Max ([1]; pH 9.5) [nm]	Quantum Yield ([1]; pH 9.5, dianionic form)	Abs Max ([2]; pH 9.5) [nm]	ε (extinction coefficient) ([2]; pH 9.5) [M⁻¹ cm⁻¹]	Molecule	also measured
516	0.92	491	80000	O=C(O)c1ccccc1-c1c2ccc(=O)cc-2oc2cc(O)ccc12 [Compound 1, fluorescein]	quantum yield, literature value [3]: 0.92; Quantum Yield ([4]; background): 0.93; difference of pKa2 and pKa3 ([4]; fluorescein and related compounds): 2.3 units
517	0.92	497	78000	O=c1ccc2c(-c3ccccc3S(=O)(=O)O)c3ccc(O)cc3oc-2c1 [Compound 2, Sulfonefluorescein]	red shift of emission maxima vs carboxy analogs [1]: 1-5 nm; effect of sulfo group on extinction coefficient and quantum yield [1]: little effect; red shift of absorbance maxima vs carboxy analogs [2]: 6-14 nm
545	0.20	522	57000	CN(C)c1ccc2c(-c3ccccc3C(=O)O)c3ccc(=O)cc-3oc2c1 [Compound 3, Rhodol]	–
565	0.24	534	81000	O=C(O)c1ccccc1-c1c2c3ccccc3c(=O)cc-2oc2cc(O)c3ccccc3c12 [Compound 4, 1,2,7,8 dibenzofluorescein]	–
581	0.05	549	24000	O=C(O)c1ccccc1-c1c2c3ccccc3c(=O)c(Br)c-2oc2c(Br)c(O)c3ccccc3c12 [Compound 5, 1,2,7,8-Dibenzo-4.5-dibromofluorescein]	extinction coefficient and quantum yield compared to parent dyes [1]: lower than the parent dyes; excitation maxima compared to parent dyes [2]: at longer wavelengths
567	0.48	541	81000	O=c1cc2oc3cc(O)c4ccccc4c3c(-c3ccccc3S(=O)(=O)O)c-2c2ccccc12 [Compound 6, 1,2,7,8-Dibenzosulfonefluorescein]	red shift of emission maxima vs carboxy analogs [1]: 1-5 nm; quantum yield vs carboxy analog ([1]; compared to compound 4): twice the quantum yield; red shift of absorbance maxima vs carboxy analogs [2]: 6-14 nm
660	0.14	595	44000	O=C(O)c1ccccc1-c1c2ccc3cc(O)ccc3c2oc2c1ccc1cc(=O)ccc12 [Compound 7, naphthofluorescein]	–
682	0.05	605	32000	O=C(O)c1ccccc1-c1c2ccc3c(Br)c(O)ccc3c2oc2c1ccc1c(Br)c(=O)ccc12 [Compound 8, 4,10 Dibromonaphthofluorescein]	–
665	0.15	609	36000	O=c1ccc2c(ccc3c(-c4ccccc4S(=O)(=O)O)c4ccc5cc(O)ccc5c4oc32)c1 [Compound 9]	extinction coefficient and quantum yield compared to parent dyes [1]: lower than the parent dyes; separation of emission maxima of monoanionic and dianionic forms [1]: 100 nm; red shift of emission maxima vs carboxy analogs [1]: 1-5 nm; effect of sulfo group on extinction coefficient and quantum yield [1]: little effect; EM Max [1, 7]: 570 nm; Quantum Yield ([1]; pH 5.2, monoanionic form): 0.04; absorbance peak maximum (apparent dimer) ([5]; 1.7×10^-5 M, pH 3.10, 4.06 and 6.45): 600 nm; isobestic point, absorbance titration ([5]; 3.4×10^-6 M): approximately 540 nm; isobestic point, emission spectra ([6]; excitation 540 nm, varying pH): 630 nm; dual fluorescence ([6]; mono- and diprotonated forms): showed dual fluorescence; excitation maxima compared to parent dyes [2]: at longer wavelengths; red shift of absorbance maxima vs carboxy analogs [2]: 6-14 nm; Abs Max [2, 7]: 524 nm; ε (extinction coefficient) [2, 7]: 13000 M⁻¹ cm⁻¹
–	–	–	–	CC(=O)Oc1ccc2c(c1)Oc1cc(OC(C)=O)ccc1C21OC(=O)c2ccccc21 [FDA, fluorescein diacetate, reference compound]	retention of initial fluorescence by stained cells over time (human white blood cells): did not retain their initial fluorescence over time
–	–	–	–	O=C1OC2(c3ccccc31)c1cc(Br)c(O)c(Br)c1Oc1c2cc(Br)c(O)c1Br [eosin]	quantum yield, literature value [3]: 0.19
–	–	–	–	allophycocyanin	quantum yield, literature value [3]: 0.68
